Read-outs that look alike come from different tables or passages of the source.
What was measured:
NZB5 = assay: Cellular growth inhibition, NZB5 (3H-thymidine incorporation); assay type: cell-based, human
Method: (§1) The compounds were evaluated against two early passage human cell lines NZB5 and NZOV9 (Marshall et al., Oncol. Res. 2004, 14, 297). The cells were grown in ITS medium (α-modified minimal essential medium supplemented insulin, transferrin, selenite, and 5% fetal bovine serum) and grown on 96-well tissue culture plates under an atmosphere of 5% O2, 5% CO2, and 90% N2. Individual wells contained 500-1,000 cells (depending on the growth rate) in a volume of 150 μL. Compounds were added at 10-fold concentration steps to a maximum of 20 μM and plates were incubated for five days, with ^3H-thymidine being added over the last 6 hrs. Cells were harvested and incorporated radioactivity measured. Duplicate samples were analyzed for each compound dose with multiple control samples.

NZOV9 = assay: Cellular growth inhibition, NZOV9 (3H-thymidine incorporation); assay type: cell-based, human
Method: as §1

p110β/p85 = p110β/p85 (Homo sapiens, UniProt P42338); assay: Inhibition of isolated enzyme p110β/p85 (lipid kinase, [γ-33P]ATP, TLC); assay type: biochemical; details: recombinant enzyme, 100 μM ATP, nine concentrations, average of two experiments
Sequence of p110β/p85 (P42338 whole entry, species assumed): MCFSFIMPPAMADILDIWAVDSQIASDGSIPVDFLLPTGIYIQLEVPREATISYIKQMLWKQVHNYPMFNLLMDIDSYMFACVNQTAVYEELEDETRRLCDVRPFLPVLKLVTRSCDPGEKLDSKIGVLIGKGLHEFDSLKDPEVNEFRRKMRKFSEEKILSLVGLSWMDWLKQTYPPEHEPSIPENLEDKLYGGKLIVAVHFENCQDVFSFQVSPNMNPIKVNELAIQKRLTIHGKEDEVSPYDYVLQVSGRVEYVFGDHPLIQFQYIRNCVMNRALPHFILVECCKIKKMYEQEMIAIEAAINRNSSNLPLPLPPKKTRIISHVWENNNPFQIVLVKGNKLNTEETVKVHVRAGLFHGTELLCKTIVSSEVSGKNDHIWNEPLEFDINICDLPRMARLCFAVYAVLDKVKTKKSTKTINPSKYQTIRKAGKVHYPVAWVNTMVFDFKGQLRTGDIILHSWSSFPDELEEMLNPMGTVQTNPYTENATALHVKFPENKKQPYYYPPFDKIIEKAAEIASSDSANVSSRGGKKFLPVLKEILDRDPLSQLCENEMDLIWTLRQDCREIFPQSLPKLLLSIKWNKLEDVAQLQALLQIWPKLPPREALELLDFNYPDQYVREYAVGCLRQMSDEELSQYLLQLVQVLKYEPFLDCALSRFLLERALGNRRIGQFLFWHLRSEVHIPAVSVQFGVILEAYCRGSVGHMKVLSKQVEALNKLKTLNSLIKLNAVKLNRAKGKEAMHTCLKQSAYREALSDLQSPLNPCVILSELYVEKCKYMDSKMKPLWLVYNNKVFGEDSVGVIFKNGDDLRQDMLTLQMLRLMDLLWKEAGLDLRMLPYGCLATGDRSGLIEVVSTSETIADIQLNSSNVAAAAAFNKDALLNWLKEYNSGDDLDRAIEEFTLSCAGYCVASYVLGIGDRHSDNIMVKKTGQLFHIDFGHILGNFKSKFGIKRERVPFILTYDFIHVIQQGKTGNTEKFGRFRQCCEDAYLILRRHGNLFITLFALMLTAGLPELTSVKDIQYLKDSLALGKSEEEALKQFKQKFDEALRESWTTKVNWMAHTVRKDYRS
Sequence of p110β/p85 (P27986 whole entry partner, species assumed): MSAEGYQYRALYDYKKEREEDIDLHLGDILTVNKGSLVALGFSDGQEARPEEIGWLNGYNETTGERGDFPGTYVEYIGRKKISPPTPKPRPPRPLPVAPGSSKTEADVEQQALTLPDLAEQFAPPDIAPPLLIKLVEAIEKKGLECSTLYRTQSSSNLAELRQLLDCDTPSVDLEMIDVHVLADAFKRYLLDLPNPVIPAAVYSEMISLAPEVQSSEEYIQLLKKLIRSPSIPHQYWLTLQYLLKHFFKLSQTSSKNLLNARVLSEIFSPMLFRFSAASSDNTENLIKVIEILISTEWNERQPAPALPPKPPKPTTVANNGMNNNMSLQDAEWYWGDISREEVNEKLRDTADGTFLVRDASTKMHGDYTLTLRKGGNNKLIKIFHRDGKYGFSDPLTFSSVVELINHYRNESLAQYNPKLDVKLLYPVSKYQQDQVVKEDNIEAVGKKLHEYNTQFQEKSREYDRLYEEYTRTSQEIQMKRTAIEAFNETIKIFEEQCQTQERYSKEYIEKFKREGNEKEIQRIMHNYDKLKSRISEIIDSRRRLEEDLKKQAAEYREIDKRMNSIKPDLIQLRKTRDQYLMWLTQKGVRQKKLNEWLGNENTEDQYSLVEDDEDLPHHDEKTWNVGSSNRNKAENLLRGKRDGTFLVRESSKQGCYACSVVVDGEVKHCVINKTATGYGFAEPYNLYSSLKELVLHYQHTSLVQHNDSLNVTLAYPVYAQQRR
Method: (§2) Compounds were evaluated for their ability to inhibit Class I PI 3-kinase enzymes p110δ/p85, p110α/p85, and p110β/p85. Reaction mixtures comprising 0.1 μg of a recombinant enzyme, 10 μg of L-α-phosphatidylinositol, and 2× Lipid Kinase Buffer (40 mM Tris-HCl, pH 7.4, 200 mM NaCl, 1 mM EDTA), which contains either DMSO only as a control or the test compound in DMSO (the final DMSO concentration is 1%), were activated by the addition of an ATP mix (5 mM MgCl2, 100 μM ATP, and 0.1 μL [γ^33P]ATP). Reactions were incubated at room temperature for 1 hr, and then stopped by the addition of 1M HCl. The lipids were then extracted using a two step procedure. Firstly, 200 μL of chloroform/methanol (1:1) was added, the biphasic reactions mixed and centrifuged briefly, and the inorganic phase was removed and discarded. Following this, 80 μL of methanol:HCl (1:1) was added and the same procedure followed. The organic phase (70 μL) was then transferred to a clean 1.6 mL tube and the reactions were dried using a Speedvac, with no heating, for 30 min. The reactions were spotted onto TLC plates (Merck Ltd) and developed for 1 hr in propanol-1:2 M acetic acid (13:7). The TLC plates were then dried at room temperature and quantified using a phosphorimager (StormImager, Amersham). Nine compound concentrations were used for each test compound to determine its IC50 value. Each experiment was performed twice and the average IC50 value is used herein.

p110δ/p85 = p110δ/p85 (Homo sapiens, UniProt O00329); assay: Inhibition of isolated enzyme p110δ/p85 (lipid kinase, [γ-33P]ATP, TLC); assay type: biochemical; details: recombinant enzyme, 100 μM ATP, nine concentrations, average of two experiments
Sequence of p110δ/p85 (O00329 whole entry, species assumed): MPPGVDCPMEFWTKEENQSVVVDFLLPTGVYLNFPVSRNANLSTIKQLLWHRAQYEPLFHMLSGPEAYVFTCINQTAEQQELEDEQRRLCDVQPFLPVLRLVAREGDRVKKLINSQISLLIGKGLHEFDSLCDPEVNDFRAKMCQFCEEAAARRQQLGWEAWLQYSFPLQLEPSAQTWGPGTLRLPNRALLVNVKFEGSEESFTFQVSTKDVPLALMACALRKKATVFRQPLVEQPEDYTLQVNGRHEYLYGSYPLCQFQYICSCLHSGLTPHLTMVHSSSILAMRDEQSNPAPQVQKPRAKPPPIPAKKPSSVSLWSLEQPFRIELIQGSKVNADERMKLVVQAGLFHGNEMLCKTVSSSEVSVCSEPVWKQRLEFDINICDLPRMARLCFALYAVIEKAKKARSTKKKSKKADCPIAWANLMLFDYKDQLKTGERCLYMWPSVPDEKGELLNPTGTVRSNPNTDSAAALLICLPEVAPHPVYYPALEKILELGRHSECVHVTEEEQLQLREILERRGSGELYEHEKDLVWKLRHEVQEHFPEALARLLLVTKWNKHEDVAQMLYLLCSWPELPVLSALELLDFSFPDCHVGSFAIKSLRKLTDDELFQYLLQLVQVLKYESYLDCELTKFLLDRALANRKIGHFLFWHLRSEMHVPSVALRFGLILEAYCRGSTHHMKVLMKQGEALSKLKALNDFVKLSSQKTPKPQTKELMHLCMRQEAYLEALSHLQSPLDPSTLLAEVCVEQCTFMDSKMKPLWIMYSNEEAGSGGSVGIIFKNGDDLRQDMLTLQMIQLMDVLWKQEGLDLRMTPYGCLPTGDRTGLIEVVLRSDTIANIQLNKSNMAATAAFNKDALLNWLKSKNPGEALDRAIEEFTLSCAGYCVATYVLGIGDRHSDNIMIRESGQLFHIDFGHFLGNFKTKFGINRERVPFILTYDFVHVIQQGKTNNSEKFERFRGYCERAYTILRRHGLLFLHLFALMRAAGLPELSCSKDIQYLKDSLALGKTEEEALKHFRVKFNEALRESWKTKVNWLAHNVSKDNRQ
Sequence of p110δ/p85 (P27986 whole entry partner, species assumed): as the sequence (P27986 whole entry partner, species assumed) above
Method: as §2

p110α/p85 = p110α/p85 (Homo sapiens, UniProt P42336); assay: Inhibition of isolated enzyme p110α/p85 (lipid kinase, [γ-33P]ATP, TLC); assay type: biochemical; details: recombinant enzyme, 100 μM ATP, nine concentrations, average of two experiments
Sequence of p110α/p85 (P42336 whole entry): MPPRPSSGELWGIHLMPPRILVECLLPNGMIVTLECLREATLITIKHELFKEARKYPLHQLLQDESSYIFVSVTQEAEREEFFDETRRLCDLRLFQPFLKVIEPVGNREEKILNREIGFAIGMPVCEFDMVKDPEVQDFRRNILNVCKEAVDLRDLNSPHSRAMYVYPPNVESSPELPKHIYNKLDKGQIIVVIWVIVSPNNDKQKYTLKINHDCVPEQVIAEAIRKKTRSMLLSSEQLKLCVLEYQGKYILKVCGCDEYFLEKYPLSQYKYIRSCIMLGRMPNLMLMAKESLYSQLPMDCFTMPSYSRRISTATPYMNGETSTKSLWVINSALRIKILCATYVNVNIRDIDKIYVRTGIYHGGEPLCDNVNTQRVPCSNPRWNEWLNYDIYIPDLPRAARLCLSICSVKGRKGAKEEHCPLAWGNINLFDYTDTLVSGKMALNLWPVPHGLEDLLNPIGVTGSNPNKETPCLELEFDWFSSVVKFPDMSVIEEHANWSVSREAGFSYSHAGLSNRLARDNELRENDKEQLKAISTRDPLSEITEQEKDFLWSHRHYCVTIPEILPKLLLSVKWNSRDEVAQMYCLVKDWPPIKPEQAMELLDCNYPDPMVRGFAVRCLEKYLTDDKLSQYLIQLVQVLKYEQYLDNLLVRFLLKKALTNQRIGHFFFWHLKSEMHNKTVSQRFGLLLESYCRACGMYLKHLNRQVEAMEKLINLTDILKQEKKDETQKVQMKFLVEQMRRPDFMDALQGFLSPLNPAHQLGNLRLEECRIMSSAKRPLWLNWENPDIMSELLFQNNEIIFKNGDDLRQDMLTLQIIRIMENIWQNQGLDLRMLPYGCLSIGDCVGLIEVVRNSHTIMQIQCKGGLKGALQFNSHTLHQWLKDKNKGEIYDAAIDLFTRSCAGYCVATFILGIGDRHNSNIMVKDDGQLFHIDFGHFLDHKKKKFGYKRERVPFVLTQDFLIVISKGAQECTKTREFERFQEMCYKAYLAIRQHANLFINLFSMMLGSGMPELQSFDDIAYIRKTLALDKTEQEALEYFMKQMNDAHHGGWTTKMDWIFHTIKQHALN
Sequence of p110α/p85 (P27986 whole entry partner): as the sequence (P27986 whole entry partner, species assumed) above
Method: as §2

[1] = Homo sapiens, NZB5, read-out: Cell IC50 NZB5
[2] = Homo sapiens, NZOV9, read-out: Cell IC50 NZOV9
[3] = Homo sapiens, NZB5, five days incubation, 3H-thymidine over the last 6 hrs, read-out: Cell IC50 NZB5
[4] = Homo sapiens, NZOV9, five days incubation, 3H-thymidine over the last 6 hrs, read-out: Cell IC50 NZOV9

With COc1cccc2c1nc(C(F)F)n2-c1nc(N2CCOCC2)nc(N2CCCC(N(C)S(C)(=O)=O)C2)n1 (stereo in doubt) [Example 45, N-{(3R)-1-[4-[2-(difluoromethyl)-4-methoxy-1H-benzimidazol-1-yl]-6-(4-morpholinyl)-1,3,5-triazin-2-yl]piperidinyl}-N-methylmethanesulfonamide] the IC50 (NZB5; [1]) was 100 to 1000 nM, the IC50 (NZOV9; [2]) was < 100 nM and the melting point was 224 to 226 °C.

With COc1cccc2c1nc(C(F)F)n2-c1nc(N2CCOCC2)nc(N2CCCC(NS(C)(=O)=O)C2)n1 (stereo in doubt) [Example 46, N-{(3S)-1-[4-[2-(difluoromethyl)-4-methoxy-1H-benzimidazol-1-yl]-6-(4-morpholinyl)-1,3,5-triazin-2-yl]piperidinyl}methanesulfonamide] the IC50 (NZB5; [1]) was 100 to 1000 nM, the IC50 (NZOV9; [2]) was < 100 nM and the melting point was 220 to 221 °C.

For COc1cccc2c1nc(C(F)F)n2-c1nc(N2CCOCC2)nc(N2CCCC(N(C)S(C)(=O)=O)C2)n1 (stereo in doubt) [Example 47, N-{(3S)-1-[4-[2-(difluoromethyl)-4-methoxy-1H-benzimidazol-1-yl]-6-(4-morpholinyl)-1,3,5-triazin-2-yl]piperidinyl}-N-methylmethanesulfonamide], the IC50 (NZB5; [1]) was 100 to 1000 nM, the IC50 (NZOV9; [2]) was < 100 nM and the melting point was 221 to 223 °C.

COc1cccc2c1nc(C(F)F)n2-c1nc(N2CCOCC2)nc(N2CCN(S(C)(=O)=O)CC2)n1 [Example 2, 2-(difluoromethyl)-4-methoxy-1-[4-[4-(methylsulfonyl)-1-piperazinyl]-6-(4-morpholinyl)-1,3,5-triazin-2-yl]-1H-benzimidazole] showed an IC50 (NZB5; [1]) of 100 to 1000 nM, an IC50 (NZOV9; [2]) of 100 to 1000 nM and a melting point of 311 to 314 °C.

In the case of CN(C)CCCOc1cccc2c1nc(C(F)F)n2-c1nc(OC2CCN(S(C)(=O)=O)CC2)nc(N2CCOCC2)n1 [Example 7, N-[3-({2-(difluoromethyl)-1-[4-{[1-(methylsulfonyl)-4-piperidinyl]oxy}-6-(4-morpholinyl)-1,3,5-triazin-2-yl]-1H-benzimidazol-4-yl}oxy)propyl]-N,N-dimethylamine], the IC50 (NZB5; [3]) is reported as 100 to 1000 nM, the IC50 (NZOV9; [4]) is reported as 100 to 1000 nM and the IC50 (p110β/p85) is reported as > 1000 nM.

With COc1cccc2c1nc(C(F)F)n2-c1nc(N[C@@H]2CCN(S(C)(=O)=O)C2)nc(N2CCOCC2)n1 [Example 32, 4-[2-(difluoromethyl)-4-methoxy-1H-benzimidazol-1-yl]-N-[(3R)-1-(methylsulfonyl)pyrrolidinyl]-6-(4-morpholinyl)-1,3,5-triazin-2-amine] the IC50 (NZB5; [1]) was 100 to 1000 nM, the IC50 (NZOV9; [2]) was < 100 nM and the melting point was 260 to 261 °C.

In the case of COc1cccc2c1nc(C(F)F)n2-c1nc(N2CCOCC2)nc(N(C)[C@@H]2CCN(S(C)(=O)=O)C2)n1 [Example 33, 4-[2-(difluoromethyl)-4-methoxy-1H-benzimidazol-1-yl]-N-methyl-N-[(3R)-1-(methylsulfonyl)pyrrolidinyl]-6-(4-morpholinyl)-1,3,5-triazin-2-amine], the IC50 (NZB5; [1]) is reported as < 100 nM, the IC50 (NZOV9; [2]) is reported as < 100 nM and the melting point is reported as 238 to 240 °C.

In the case of COc1cccc2c1nc(C(F)F)n2-c1nc(N[C@@H]2CCCN(S(C)(=O)=O)C2)nc(N2CCOCC2)n1 [Example 40, 4-[2-(difluoromethyl)-4-methoxy-1H-benzimidazol-1-yl]-N-[(3R)-1-(methylsulfonyl)piperidinyl]-6-(4-morpholinyl)-1,3,5-triazin-2-amine], the IC50 (NZB5; [1]) is reported as 100 to 1000 nM, the IC50 (NZOV9; [2]) is reported as < 100 nM and the melting point is reported as 241 to 243 °C.

For COc1cccc2c1nc(C(F)F)n2-c1nc(N[C@H]2CCCN(S(C)(=O)=O)C2)nc(N2CCOCC2)n1 [Example 42, 4-[2-(difluoromethyl)-4-methoxy-1H-benzimidazol-1-yl]-N-[(3S)-1-(methylsulfonyl)piperidinyl]-6-(4-morpholinyl)-1,3,5-triazin-2-amine], the IC50 (NZB5; read-out: Cell IC50 NZB5, five days incubation, 3H-thymidine over the last 6 hrs) was 100 to 1000 nM, the IC50 (NZOV9; read-out: Cell IC50 NZOV9, five days incubation, 3H-thymidine over the last 6 hrs) was < 100 nM and the melting point was 239 to 241 °C.

With COc1cccc2c1nc(C(F)F)n2-c1nc(OC2CCN(S(=O)(=O)CCN3CCN(S(C)(=O)=O)CC3)CC2)nc(N2CCOCC2)n1 [Example 52, 2-(difluoromethyl)-4-methoxy-1-[4-{[1-({2-[4-(methylsulfonyl)-1-piperazinyl]ethyl}sulfonyl)-4-piperidinyl]oxy}-6-(4-morpholinyl)-1,3,5-triazin-2-yl]-1H-benzimidazole] the IC50 (NZB5; [3]) was > 1000 nM, the IC50 (NZOV9; [4]) was > 1000 nM and the melting point was 251 to 254 °C.

With COc1cccc2c1nc(C(F)F)n2-c1nc(N2CCOCC2)nc(N(CCCN(C)C)C2CCN(S(=O)(=O)CCl)CC2)n1 [Example 59, N^1-{1-[(chloromethyl)sulfonyl]-4-piperidinyl}-N^1-[4-[2-(difluoromethyl)-4-methoxy-1H-benzimidazol-1-yl]-6-(4-morpholinyl)-1,3,5-triazin-2-yl]-N^3,N^3-dimethyl-1,3-propanediamine] the IC50 (p110β/p85) was > 1000 nM.

For COc1cccc2c1nc(C(F)F)n2-c1nc(N2CCOCC2)nc(N2CCC(NS(=O)(=O)CCl)CC2)n1 [Example 61, chloro-N-{1-[4-[2-(difluoromethyl)-4-methoxy-1H-benzimidazol-1-yl]-6-(4-morpholinyl)-1,3,5-triazin-2-yl]-4-piperidinyl}methanesulfonamide], the IC50 (p110δ/p85) was < 100 nM, the IC50 (p110α/p85) was < 100 nM and the melting point was 230 to 232 °C.

With COc1cccc2c1nc(C(F)F)n2-c1nc(N[C@H]2CC[C@H](NS(C)(=O)=O)CC2)nc(N2CCOCC2)n1 [Example 78, trans-N-(4-{[4-[2-(difluoromethyl)-4-methoxy-1H-benzimidazol-1-yl]-6-(4-morpholinyl)-1,3,5-triazin-2-yl]amino}cyclohexyl)methanesulfonamide] the IC50 (NZB5; [1]) was 100 to 1000 nM, the IC50 (NZOV9; [2]) was < 100 nM and the melting point was 269 to 272 °C.

For COc1cccc2c1nc(C(F)F)n2-c1nc(N2CCOCC2)nc(N2CCN(S(=O)(=O)C(F)(F)F)CC2)n1 [Example 86, 2-(difluoromethyl)-4-methoxy-1-(4-(4-morpholinyl)-6-{4-[(trifluoromethyl)-sulfonyl]-1-piperazinyl}-1,3,5-triazin-2-yl)-1H-benzimidazole], the IC50 (p110δ/p85) was > 1000 nM, the IC50 (p110α/p85) was 100 to 1000 nM and the melting point was 272 to 273 °C.

For COc1cccc2c1nc(C(F)F)n2-c1nc(N2CCOCC2)nc(N2CCC(NS(=O)(=O)C(F)(F)F)CC2)n1 [Example 87, N-{1-[4-[2-(difluoromethyl)-4-methoxy-1H-benzimidazol-1-yl]-6-(4-morpholinyl)-1,3,5-triazin-2-yl]-4-piperidinyl}trifluoromethanesulfonamide], the IC50 (p110δ/p85) was 100 to 1000 nM, the IC50 (p110α/p85) was < 100 nM and the melting point was 282 to 285 °C.

In the case of COc1cccc2c1nc(C(F)F)n2-c1nc(N2CCOCC2)nc(N2CC(NS(=O)(=O)C(F)(F)F)C2)n1 [Example 88, N-{1-[4-[2-(difluoromethyl)-4-methoxy-1H-benzimidazol-1-yl]-6-(4-morpholinyl)-1,3,5-triazin-2-yl]-3-azetidinyl}(trifluoro)methanesulfonamide], the IC50 (p110δ/p85) is reported as 100 to 1000 nM and the IC50 (p110α/p85) is reported as < 100 nM.

With COc1cccc2c1nc(C(F)F)n2-c1nc(-c2ccc(S(=O)(=O)N3CCN(C)CC3)cc2)nc(N2CCOCC2)n1 [Example 95, 2-(difluoromethyl)-4-methoxy-1-[4-{4-[(4-methyl-1-piperazinyl)sulfonyl]phenyl}-6-(4-morpholinyl)-1,3,5-triazin-2-yl]-1H-benzimidazole] the IC50 (p110δ/p85) was > 1000 nM.

In the case of COc1cccc2c1nc(C(F)F)n2-c1nc(Nc2ccc(NS(C)(=O)=O)nc2)nc(N2CCOCC2)n1 [Example 100, N-(5-{[4-[2-(difluoromethyl)-4-methoxy-1H-benzimidazol-1-yl]-6-(4-morpholinyl)-1,3,5-triazin-2-yl]amino}-2-pyridinyl)methanesulfonamide], the IC50 (NZB5; [3]) is reported as 100 to 1000 nM, the IC50 (NZOV9; [4]) is reported as < 100 nM and the IC50 (p110δ/p85) is reported as < 100 nM. The IC50 (p110α/p85) was < 100 nM and the melting point was 302 to 306 °C.

Reference: patent US8772287B2, “Pyrimidinyl and 1,3,5-triazinyl benzimidazole sulfonamides and their use in cancer therapy” (VetDC, Inc., priority 2009, dated 2014)
